How the values were obtained:
murine macrophages [1] = assay: Nitrite (nitric oxide) production by LPS-stimulated murine macrophages; assay type: cell-based; conditions: 24 hours; for nitric oxide byproducts compared with control untreated Arg #4: 120 mcg/ml; for Nitrites: determined from optical density; for Nitrites / Mean O.D. ± S.D.: 120 mcg/ml arginine, LPS 1 ng/ml; for Mean O.D. ± S.D.: optical density at 540 nm
Protocol: Paracelsian in Ithaca, N.Y., an outside independent lab, performed the following bioassays. Each arginine sample was added to 12 wells of murine macrophages to achieve a concentration of 120 mcg/ml. This is the estimated serum concentration for a 70 Kg person after ingesting a 6-gram serving of arginine, a level observed in numerous clinical studies to be associated with a wide range of physiologic benefits. LPS at 1 ng/ml was added to each well and the cells were incubated for 24 hours. The nitrite concentration in each well's supernatant was determined 24 hours after initiation of treatment as a relative measure of nitric oxide production.
The results are listed in order of relative nitrite production, from greatest to least. The first column is the Arg #, the second the mean plus or minus the standard deviation of the optical density measurement at 540 nm, a measure of nitrite concentration, and the third column the relative production of nitrites expressed in micrograms per ml as determined from optical density.

[2] = test system: person with relapsing lupus; assay: Case report: relapsing lupus treated with the methylation formula; assay type: in vivo, human; conditions: before the formula
Text: The exemplary patient had suffered with relapsing lupus for several years. At the time of entry into the methylation formula studies of EXAMPLE 6, they had experienced a relapse of severe disease for several months.
Their disease was characterized by exquisitely tender blistering and ulcerating lesions on their hands and feet that made it difficult to walk or open a cabinet door without severe pain. Their skin was pallid, they were extremely fatigued with a chronic low energy state, and had suffered extensive hair loss. Their sedimentation rate, a marker for systemic inflammation, was highly elevated at 99, whereas a normal level would be 0-30. […] They declined the use of corticosteroids due to severe treatment side effects during a prior relapse.
The subject was randomized to the placebo control group and for 3 months had no improvement in condition. In the second phase of the study, they were placed on a high dose of the methylation formula of 6 grams of laser treated betaine plus cofactors daily. […]
The subject continued on a lower dose of the laser treated methylation formula for 5 more months, reduced to 1-2 grams of the laser treated betaine plus cofactors. […] At the end of fifth month of lower dose treatment, their sedimentation rate had dropped to the very low normal value of 1, the lowest level ever recorded for them.

[3] = test system: subject with osteoarthritis; assay: Pilot test: blood SAMe level and knee pain in a subject with osteoarthritis; assay type: in vivo, human
Text: As a pilot test, a subject with osteoarthritis had blood SAMe levels measured while taking SAMe and then while taking a betaine formulation. […] On this level of SAMe ingestion for three months, their blood SAMe level was 4.9 (the normal range for this lab is 4.2-8.2). At this time, SAMe was discontinued and they started a methylation formula with one gram of laser treated betaine plus laser treated metabolic cofactors. The betaine and metabolic co-factors were in the same ratios as in the double blind clinical study formula to be described below.

[4] = 1600 mg per day, cited from earlier work
liver SAMe = conditions: animal studies; cited from earlier work
[5] = test system: subjects that had just survived a first myocardial infarction; conditions: betaine 9 grams daily plus vitamin B12, liver extract, creatine precursor; placebo 25%; cited from earlier work
murine macrophages [6] = assay: TNF-alpha production by Echinacea-stimulated murine macrophages (ELISA); assay type: cell-based; conditions: 24 hours, samples at 20 mg/ml with Echinacea
Protocol: An independent outside lab, Paracelsian in Ithaca, N.Y., performed the following bioassays. A standardized Echinacea sample alone or with 20 mg/ml of Samples 1, 2, or 3 were incubated in the tissue culture media of triplicate wells of murine macrophages for 24 hours after Echinacea stimulation and then assayed for tumor necrosis factor-alpha (TNF-alpha) production in triplicate ELISA wells. Positive controls with lipopolysaccharide (LPS) at 1 ng/ml and negative controls were also assayed in the same manner.
Those skilled in the art will appreciate that the use of murine macrophages simulates the body's immune response. Adding the herb Echinacea provides a similar response to that of an immune system that is being irritated. A TNF-alpha reading is a good marker for the extent of inflammation. Thus a substance that causes a significant increase in TNF-alpha in the macrophages can be expected to create substantial inflammation in a human body—especially a body suffering from an autoimmune disease such as inflammatory bowel disease, as well as other physiological problems such as systemic lupus erythematosus, rheumatoid arthritis and food allergies.

Row | Molecule | nitric oxide byproducts compared with control untreated Arg #4 (murine macrophages [1]) | Nitrites (murine macrophages [1]) | Mean O.D. ± S.D. (murine macrophages [1]) | further results
1 | N=C(N)NCCC[C@H](N)C(=O)O [Arg #1, L-arginine] | statistically significantly less nitric oxide byproducts | 10.6 micrograms per ml | .215 ± .007 | –
2 | N=C(N)NCCC[C@H](N)C(=O)O [Arg #2, L-arginine] | statistically significantly less nitric oxide byproducts | 10.8 micrograms per ml | .219 ± .008 | –
3 | N=C(N)NCCC[C@H](N)C(=O)O [Arg #3, L-arginine] | statistically significantly more nitric oxide byproducts | 12.0 micrograms per ml | .232 ± .010 | –
4 | N=C(N)NCCC[C@H](N)C(=O)O [Arg #4, L-arginine] | – | 11.4 micrograms per ml | .224 ± .006 | –
5 | CCN(CCO)CCCC(C)Nc1ccnc2cc(Cl)ccc12 (stereo not shown) [Plaquenil] | – | – | – | relief of lupus symptoms [2]: did little to relieve their symptoms
6 | C[S+](CC[C@H](N)C(=O)O)C[C@H]1O[C@@H](n2cnc3c(N)ncnc32)[C@H](O)[C@@H]1O (stereo partly shown) [SAMe, S-adenosyl-methionine] | – | – | – | blood SAMe level ([3]; 800 mg of SAMe daily for three months, normal range 4.2-8.2): 4.9; knee pain ([3]; osteoarthritis): moderate degree of relief; side effects [4]: essentially free of side effects; onset of anti-depressant effects ([4]; tricyclics 4-6 weeks): within one week
7 | C[N+](C)(C)CC(=O)O [betaine, N,N,N-trimethylglycine] | – | – | – | rise of liver SAMe levels (liver SAMe): up to fourfold; mortality after one year [5]: no mortality
8 | lipopolysaccharide [LPS 1 ng/ml Control] | – | – | – | TNF-alpha ± S.D. (murine macrophages [6]): 2863 ± 185.7
